Assay results published in patent publication US9676818B2, “Toll-like receptor 2-agonistic lipopeptides, and method of making the same” (University of Kansas, priority 2013, dated 2017).

Molecular target: human TLR2 (Homo sapiens (Human), UniProt O60603)
Assay: human TLR2-specific NF-κB reporter gene assay (HEK-Blue cells)
Assay type: cell-based
Conditions: for EC50: human TLR2-specific reporter gene assay, ND = no activity detected at 10 μM, read-out: TLR2-Agonistic Activity (EC50 in nM); for hTLR2-agonistic activity in words: hTLR2 reporter gene assay
Description: The induction of NF-κB in a TLR2-specific reporter gene assay was quantified using HEK-BLUE™ cells as previously described (Wu, W. et al., J. Med. Chem. 2010, 53, 3198-3213). HEK293 cells stably transfected with either human TLR2 or murine TLR2 and alkaline phosphatase (sAP) were obtained from InvivoGen (San Diego, Calif.), and were maintained in HEK-BLUE™ Selection medium containing zeocin and normocin. Stable expression of secreted alkaline phosphatase (sAP) under control of NF-κB promoters is inducible by TLR2 agonists, and extracellular sAP in the supernatant is proportional to NF-κB induction. HEK-Blue cells were incubated at a density of ˜10^5 cells/mL in a volume of 80 μL/well, in 384-well, flat-bottomed, cell culture-treated microtiter plates until confluency was achieved, and then stimulated with serially-diluted aliquots of compounds for 12 h. sAP was assayed spectrophoto-metrically using an alkaline phosphatase-specific chromogen (present in the HEK-detection medium as supplied by the vendor) at 620 nm. For antagonism assays, HEK-Blue cells were incubated at a density of ˜10^5 cells/mL in a volume of 80 μL/well and stimulated with either PAM2CS (1 μg/mL) or lipoteichoic acid (1 μg/mL) in the presence of graded concentrations of the test compounds as described for TLR7 previously (Shukla, N. M.; et al., Bioorg. Med. Chem. Lett. 2009, 19, 2211-2214; Shukla, N. M. et al., Bioorg. Med. Chem. 2011, 19, 3801-3811).

human TLR2, sequence (O60603 21-784): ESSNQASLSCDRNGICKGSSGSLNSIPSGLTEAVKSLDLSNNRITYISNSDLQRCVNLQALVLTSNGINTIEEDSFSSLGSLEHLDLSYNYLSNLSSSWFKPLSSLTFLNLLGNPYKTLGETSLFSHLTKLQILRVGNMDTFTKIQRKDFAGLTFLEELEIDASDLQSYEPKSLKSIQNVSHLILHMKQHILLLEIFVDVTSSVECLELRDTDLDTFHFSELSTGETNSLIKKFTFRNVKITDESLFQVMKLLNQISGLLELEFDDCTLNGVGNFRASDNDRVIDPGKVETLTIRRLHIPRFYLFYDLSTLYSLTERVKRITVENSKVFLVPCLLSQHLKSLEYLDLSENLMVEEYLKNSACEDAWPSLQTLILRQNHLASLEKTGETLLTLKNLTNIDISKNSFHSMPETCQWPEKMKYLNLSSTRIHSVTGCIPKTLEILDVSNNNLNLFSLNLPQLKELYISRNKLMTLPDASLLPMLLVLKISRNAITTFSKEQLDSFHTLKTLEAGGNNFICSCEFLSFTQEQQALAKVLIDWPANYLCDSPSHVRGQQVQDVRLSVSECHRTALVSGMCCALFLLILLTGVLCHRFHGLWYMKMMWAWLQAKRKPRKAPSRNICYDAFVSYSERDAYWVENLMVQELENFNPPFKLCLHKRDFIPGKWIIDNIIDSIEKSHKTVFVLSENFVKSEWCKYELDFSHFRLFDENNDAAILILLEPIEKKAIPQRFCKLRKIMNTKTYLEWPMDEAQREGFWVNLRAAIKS

EC50 [nM]	hTLR2-agonistic activity in words	absolute magnitude of TLR2-induced NF-κB activation (hTLR2, FIG. 1)	Compound
> 10000			CCCC(=O)OCCSC[C@H](N)C(=O)N[C@@H](CO)C(=O)OC [Compound 6a, 2-(((R)-2-Amino-3-(((S)-3-Hydroxy-1-Methoxy-1-oxopropan-2-yl)amino)-3-oxopropyl)thio)ethyl butyrate]
> 10000			CCCCCCCC(=O)OCCSC[C@H](N)C(=O)N[C@@H](CO)C(=O)OC [Compound 6b, 2-(((R)-2-amino-3-(((S)-3-hydroxy-1-methoxy-1-oxopropan-2-yl)amino)-3-oxopropyl)thio)ethyl octanoate]
> 10000			CCCCCCCCCCCC(=O)OCCSC[C@H](N)C(=O)N[C@@H](CO)C(=O)OC [Compound 6c, 2-(((R)-2-amino-3-(((S)-3-hydroxy-1-methoxy-1-oxopropan-2-yl)amino)-3-oxopropyl)thio)ethyl dodecanoate]
> 10000	complete absence of activity		COC(=O)[C@H](CO)NC(=O)[C@@H](N)CSCCOC(=O)c1ccc(-c2ccccc2)cc1 [Compound 6f, 2-(((R)-2-amino-3-(((S)-3-hydroxy-1-methoxy-1-oxopropan-2-yl)amino)-3-oxopropyl)thio)ethyl[1,1′-biphenyl]-4-carboxylate]
> 10000	complete absence of activity		COC(=O)[C@H](CO)NC(=O)[C@@H](N)CSCCOC(=O)c1cccc(-c2ccccc2)c1 [Compound 6g, 2-(((R)-2-amino-3-(((S)-3-hydroxy-1-methoxy-1-oxopropan-2-yl)amino)-3-oxopropyl)thio)ethyl[1,1′-biphenyl]-3-carboxylate]
	complete absence of activity		COC(=O)[C@H](CO)NC(=O)[C@@H](N)CSCCOC(=O)c1ccc(-c2ccc(-c3ccccc3)cc2)cc1 [Compound 6h]
> 10000	inactive		CCCCCCCCCCCCCCCC(=O)OCCSC[C@H](NCC)C(=O)N[C@@H](CO)C(=O)OC [Compound 11a, 2-(((R)-2-(ethylamino)-3-(((S)-3-hydroxy-1-methoxy-1-oxopropan-2-yl)amino)-3-oxopropyl)thio)ethyl palmitate]
> 10000	inactive		CCCCCCCCCCCCCCCC(=O)OCCSC[C@H](NCCCCCCCC)C(=O)N[C@@H](CO)C(=O)OC [Compound 11b, 2-(((R)-3-(((S)-3-hydroxy-1-methoxy-1-oxopropan-2-yl)amino)-2-(octylamino)-3-oxopropyl)thio)ethyl palmitate]
> 10000	inactive		CCCCCCCCCCCCCCCCN[C@@H](CSCCOC(=O)CCCCCCCCCCCCCCC)C(=O)N[C@@H](CO)C(=O)OC [Compound 11c, 2-(((R)-2-(hexadecylamino)-3-(((S)-3-hydroxy-1-methoxy-1-oxopropan-2-yl)amino)-3-oxopropyl)thio)ethyl palmitate]
1.01		far greater	CCCCCCCCCCCCCCCC(=O)OCCSC[C@H](NC(C)=O)C(=O)N[C@@H](CO)C(=O)OC [Compound 11d, 2-(((R)-2-acetamido-3-(((S)-3-hydroxy-1-methoxy-1-oxopropan-2-yl)amino)-3-oxopropyl)thio)ethyl palmitate]

Compound	EC50 [nM]	hTLR2-agonistic activity in words	absolute magnitude of TLR2-induced NF-κB activation (hTLR2, FIG. 1)
CCCCCCCCCCCCCCN(CCCCCCCCCCCCCC)CC(=O)OCCSC[C@H](N)C(=O)N[C@@H](CO)C(=O)OC [Compound 10a, (S)-methyl 2-((R)-2-amino-3-((2-(2-(ditetradecylamino)acetoxy)ethyl)thio)propan-amido)-3-hydroxypropanoate]	> 10000	completely inactive	
CCCCCCCCCCCCCCNCC(=O)OCCSC[C@H](N)C(=O)N[C@@H](CO)C(=O)OC [Compound 10b, (S)-methyl 2-((R)-2-amino-3-((2-(2-(tetradecylamino)acetoxy)ethyl)thio)propanamido)-3-hydroxypropanoate]	> 10000	completely inactive	
